ChEMBL document CHEMBL1141521, “Individual stereoisomers of phosphinic dipeptide inhibitor of leucine aminopeptidase” (Bioorg Med Chem Lett, 2008)

Target: T1, Leucine aminopeptidase (Plasmodium falciparum 3D7, UniProt Q8IL11)
T1 sequence (Q8IL11 whole entry): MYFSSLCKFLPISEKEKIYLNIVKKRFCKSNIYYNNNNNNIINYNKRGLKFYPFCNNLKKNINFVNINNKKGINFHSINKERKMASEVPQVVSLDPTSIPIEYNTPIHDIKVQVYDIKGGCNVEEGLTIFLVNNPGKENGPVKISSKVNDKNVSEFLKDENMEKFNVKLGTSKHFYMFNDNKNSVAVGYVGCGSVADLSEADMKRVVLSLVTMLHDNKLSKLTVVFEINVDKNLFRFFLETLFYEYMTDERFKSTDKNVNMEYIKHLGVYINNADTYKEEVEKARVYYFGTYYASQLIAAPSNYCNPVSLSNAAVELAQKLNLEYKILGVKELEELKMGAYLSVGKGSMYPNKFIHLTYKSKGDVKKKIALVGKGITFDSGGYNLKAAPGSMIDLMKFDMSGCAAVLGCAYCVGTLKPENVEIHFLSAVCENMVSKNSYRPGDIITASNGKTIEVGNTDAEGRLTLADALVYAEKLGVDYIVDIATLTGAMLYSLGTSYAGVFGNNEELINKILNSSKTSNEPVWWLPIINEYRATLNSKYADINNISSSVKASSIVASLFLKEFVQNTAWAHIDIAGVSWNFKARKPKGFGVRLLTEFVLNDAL
Assay: Inhibition of Plasmodium falciparum recombinant leucine aminopeptidase

In the case of `NC(CCc1ccccc1)P(=O)(O)CC(Cc1ccccc1)C(=O)O` (stereo unspecified), the Ki is reported as 13.2 nM.
